Test results taken from article PMC11995724, “Antibiotic target discovery by integrated phenotypic and activity-based profiling of electrophilic fragments” (Cell chemical biology, 2025).

Assay: in vitro
Conditions: human, hek293t cells

Compared with `CN(CC(=O)Nc1ccccc1Cl)C(=O)CCl` [4-D05, 2-chloro-N-{[(2-chlorophenyl)carbamoyl]methyl}-N-methylacetamide], `Cc1ccc(CNC(=O)c2ccccc2NC(=O)CCl)cc1` [4-H21, 2-(2-chloroacetamido)-N-[(4-methylphenyl)methyl]benzamide] is higher in viability at 48 h, 25 µM: 0.034% for the first, 105% for the second.

First: Cc1nn(-c2ccccc2)c(C)c1CN(C)C(=O)CCl [7-B03, 2-chloro-N-[(3,5-dimethyl-1-phenyl-1H-pyrazol-4-yl)methyl]-N-methylacetamide]
Second: Cc1cc(C(=O)CCl)c(C)n1C(C)c1ccccc1 (stereo not shown) [10-P17, 2-chloro-1-[2,5-dimethyl-1-(1-phenylethyl)-1H-pyrrol-3-yl]ethan-1-one]
The viability at 48 h, 25 µM of the first is lower: 0.804% for the first, 113% for the second.

Going from `Cn1c(=O)c(C(=O)CCl)c(N)n(Cc2ccccc2)c1=O` [10-L15, 6-amino-1-benzyl-5-(2-chloroacetyl)-3-methyl-1,2,3,4-tetrahydropyrimidine-2,4-dione] to `O=C(CCl)NC(Cc1ccccc1)c1ccccc1F` (stereo not shown) [7-N10, 2-chloro-N-[1-(2-fluorophenyl)-2-phenylethyl]acetamide], the viability at 48 h, 25 µM falls from 76.7% to 0.701%.

Compared with `O=C(CCl)N1N=C(c2cccs2)CC1c1cccs1` (stereo not shown) [4-O18, 1-[3,5-bis(thiophen-2-yl)-4,5-dihydro-1H-pyrazol-1-yl]-2-chloroethan-1-one], `O=C(CCl)NC(CC1CC1)c1ccc(Cl)cn1` (stereo not shown) [6-F19, 2-chloro-N-[1-(5-chloropyridin-2-yl)-2-cyclopropylethyl]acetamide] is higher in viability at 48 h, 25 µM: 0.013% for the first, 1.46% for the second.

Compared with `C=CC(=O)N(CC)CC(=O)N1CCc2[nH]nc(C(F)(F)F)c2C1` [3-A14, N-ethyl-N-{2-oxo-2-[3-(trifluoromethyl)-1H,4H,5H,6H,7H-pyrazolo[4,3-c]pyridin-5-yl]ethyl}prop-2-enamide], `C=CC(=O)N1CCn2c(cnc2C(F)(F)F)C1` [3-B16, 1-[3-(trifluoromethyl)-5H,6H,7H,8H-imidazo[1,5-a]pyrazin-7-yl]prop-2-en-1-one] is higher in viability at 48 h, 25 µM: 64.2% for the first, 81.8% for the second.

Going from `O=C(CCl)NCCSc1ccc(Cl)cc1` [4-H17, 2-chloro-N-{2-[(4-chlorophenyl)sulfanyl]ethyl}acetamide] to `O=C(CCl)Nc1ccc(F)c(F)c1F` [4-M05, 2-chloro-N-(2,3,4-trifluorophenyl)acetamide], the viability at 48 h, 25 µM falls from 0.813% to 0.759%.

First: C=CC(=O)N1CCC(C(=O)NC2CCOC3(CCSCC3)C2)CC1 (stereo not shown) [2-B12, N-{1-oxa-9-thiaspiro[5.5]undecan-4-yl}-1-(prop-2-enoyl)piperidine-4-carboxamide]
Second: C=CC(=O)N1CCC(C(=O)N[C@H]2CC[C@@H](CC#N)C2)CC1 (racemic) [2-G21, rac-N-[(1R,3S)-3-(cyanomethyl)cyclopentyl]-1-(prop-2-enoyl)piperidine-4-carboxamide]
The viability at 48 h, 25 µM of the first is higher: 97.1% for the first, 71.9% for the second.

Going from `Cc1oc(C(=O)O)cc1C(=O)CCl` [10-M21, 4-(2-chloroacetyl)-5-methylfuran-2-carboxylic acid] to `COCCn1c(C)cc(C(=O)CCl)c1C` [10-D13, 2-chloro-1-[1-(2-methoxyethyl)-2,5-dimethyl-1H-pyrrol-3-yl]ethan-1-one], the viability at 48 h, 25 µM rises from 91% to 110%.

First: C=CC(=O)N1CCC(C(=O)N2CCC(C(=O)NCC(C)C)CC2)CC1 [3-C17, N-(2-methylpropyl)-1-[1-(prop-2-enoyl)piperidine-4-carbonyl]piperidine-4-carboxamide]
Second: C=CC(=O)N1CCC(C(=O)NCCc2c(C)n[nH]c2C)CC1 [2-D04, N-[2-(3,5-dimethyl-1H-pyrazol-4-yl)ethyl]-1-(prop-2-enoyl)piperidine-4-carboxamide]
The viability at 48 h, 25 µM of the first is lower: 34.6% for the first, 88.7% for the second.

`CC(Cl)C(=O)c1ccc2c(c1)NC(=O)CO2` (stereo not shown) [10-P12, 6-(2-chloropropanoyl)-3,4-dihydro-2H-1,4-benzoxazin-3-one] and `Cc1cc(C(=O)C(C)Cl)c(C)n1Cc1ccco1` (stereo not shown) [10-E06, 2-chloro-1-{1-[(furan-2-yl)methyl]-2,5-dimethyl-1H-pyrrol-3-yl}propan-1-one] are the same in viability at 48 h, 25 µM: 105% for the first, 105% for the second.

Going from `Cc1cc(C(=O)CCl)c(C)n1-c1ccc(C(C)(C)C)cc1` [10-N20, 1-[1-(4-tert-butylphenyl)-2,5-dimethyl-1H-pyrrol-3-yl]-2-chloroethan-1-one] to `Cc1cc(C(=O)CCl)c(C)n1C(c1ccccc1)c1ccccc1` [10-I08, 2-chloro-1-[1-(diphenylmethyl)-2,5-dimethyl-1H-pyrrol-3-yl]ethan-1-one], the viability at 48 h, 25 µM rises from 0.606% to 1.32%.

First: C=CC(=O)NCCC1COCCO1 (stereo not shown) [2-H15, N-[2-(1,4-dioxan-2-yl)ethyl]prop-2-enamide]
Second: C=CC(=O)NCC1CCc2nnc(C(C)C)n2C1 (stereo not shown) [2-J03, N-{[3-(propan-2-yl)-5H,6H,7H,8H-[1,2,4]triazolo[4,3-a]pyridin-6-yl]methyl}prop-2-enamide]
The viability at 48 h, 25 µM of the first is higher: 74.3% for the first, 60.6% for the second.

First: C=CC(=O)NC1CCOc2c(F)cccc21 (stereo not shown) [1-D05, N-(8-fluoro-3,4-dihydro-2H-1-benzopyran-4-yl)prop-2-enamide]
Second: C=CC(=O)NC(C(N)=O)c1ccccc1F (stereo not shown) [2-H19, N-[carbamoyl(2-fluorophenyl)methyl]prop-2-enamide]
The viability at 48 h, 25 µM of the first is higher: 99.1% for the first, 51.9% for the second.

First: N#CC(=Cc1ccc(N2CCCCC2)cc1)C(=O)NC1CC1 [8-O04, 2-cyano-N-cyclopropyl-3-[4-(piperidin-1-yl)phenyl]prop-2-enamide]
Second: C=CC(=O)NCc1ccc(N2CCN(C)CC2)cc1 [3-I20, N-{[4-(4-methylpiperazin-1-yl)phenyl]methyl}prop-2-enamide]
The viability at 48 h, 25 µM of the first is lower: 82.3% for the first, 112% for the second.

Compared with `O=C(CCl)Cc1ccc(C(F)(F)F)cc1` [10-C19, 1-chloro-3-[4-(trifluoromethyl)phenyl]propan-2-one], `O=C(CCl)Nc1ccc(S(=O)(=O)N2CCCC2)cc1` [4-F08, 2-chloro-N-[4-(pyrrolidine-1-sulfonyl)phenyl]acetamide] is higher in viability at 48 h, 25 µM: 1.02% for the first, 1.07% for the second.

First: CN(CC(=O)NC1CCC(O)CC1)C(=O)CCl (stereo not shown) [7-L08, 2-chloro-N-{[(4-hydroxycyclohexyl)carbamoyl]methyl}-N-methylacetamide]
Second: Cc1nn(C)c(C)c1CN(C(=O)CCl)C1CCCCC1C (stereo not shown) [5-A14, 2-chloro-N-(2-methylcyclohexyl)-N-[(1,3,5-trimethyl-1H-pyrazol-4-yl)methyl]acetamide]
The viability at 48 h, 25 µM of the first is higher: 0.707% for the first, 0.467% for the second.

Compared with `C=CC(=O)N1CCN(CC(=O)NC)CC1` [1-F03, N-methyl-2-[4-(prop-2-enoyl)piperazin-1-yl]acetamide], `Cc1ccc(NC(=O)N2CCN(C(=O)C(C)Cl)CC2)cc1Cl` (stereo not shown) [7-A21, N-(3-chloro-4-methylphenyl)-4-(2-chloropropanoyl)piperazine-1-carboxamide] is lower in viability at 48 h, 25 µM: 158% for the first, 70.8% for the second.

Going from `CCCCNC(=O)C(C#N)=Cc1cc(C)cc(C)c1` [9-C03, N-butyl-2-cyano-3-(3,5-dimethylphenyl)prop-2-enamide] to `CCCCNC(=O)C(C#N)=Cc1ccsc1` [9-B13, N-butyl-2-cyano-3-(thiophen-3-yl)prop-2-enamide], the viability at 48 h, 25 µM falls from 122% to 102%.

First: N#Cc1c(NC(=O)CCl)oc(-c2ccco2)c1-c1ccco1 [5-D10, 2-chloro-N-[4'-cyano-2'-(furan-2-yl)-[2,3'-bifuran]-5'-yl]acetamide]
Second: COc1ccc(-c2csc(NC(=O)CCl)n2)c(OC)c1 [4-F12, 2-chloro-N-[4-(2,4-dimethoxyphenyl)-1,3-thiazol-2-yl]acetamide]
The viability at 48 h, 25 µM of the first is higher: 45.5% for the first, 0.886% for the second.

First: C=CC(=O)NC(C)c1cnc(C(F)(F)F)s1 (stereo not shown) [2-A05, N-{1-[2-(trifluoromethyl)-1,3-thiazol-5-yl]ethyl}prop-2-enamide]
Second: C=CC(=O)NCc1cc(-c2cccc(OC)c2)no1 [1-I11, N-{[3-(3-methoxyphenyl)-1,2-oxazol-5-yl]methyl}prop-2-enamide]
The viability at 48 h, 25 µM of the first is lower: 73.5% for the first, 76.7% for the second.

Going from `C=CC(=O)NCc1ccc(C(=O)N2CCCCC(SC)C2)cc1` (stereo not shown) [2-B20, N-({4-[3-(methylsulfanyl)azepane-1-carbonyl]phenyl}methyl)prop-2-enamide] to `C=CC(=O)N1CCC(C(=O)NC[C@H]2C[C@@H](O)C2)(c2ccccc2)CC1` [3-O04, 4-phenyl-1-(prop-2-enoyl)-N-{[(1s,3s)-3-hydroxycyclobutyl]methyl}piperidine-4-carboxamide], the viability at 48 h, 25 µM rises from 57.3% to 118%.

Going from `N#CC(=Cc1ccco1)C(=O)NCc1nc(-c2ccncc2)cs1` [9-B20, 2-cyano-3-(furan-2-yl)-N-{[4-(pyridin-4-yl)-1,3-thiazol-2-yl]methyl}prop-2-enamide] to `N#CC(=Cc1cccc([N+](=O)[O-])c1)C(=O)NCc1ccccc1` [8-B22, N-benzyl-2-cyano-3-(3-nitrophenyl)prop-2-enamide], the viability at 48 h, 25 µM falls from 109% to 32%.

First: O=C(CCl)Nc1c(Cl)c(Cl)cc(Cl)c1Cl [4-O16, 2-chloro-N-(2,3,5,6-tetrachlorophenyl)acetamide]
Second: CCn1ncc(C(=O)CCl)n1 [10-E13, 2-chloro-1-(2-ethyl-2H-1,2,3-triazol-4-yl)ethan-1-one]
The viability at 48 h, 25 µM of the first is lower: 1.16% for the first, 87.2% for the second.

First: O=C1C=CC(=O)N1c1ccccc1Sc1ccc(Cl)cc1 [10-A03, 1-{2-[(4-chlorophenyl)sulfanyl]phenyl}-2,5-dihydro-1H-pyrrole-2,5-dione]
Second: N#CC(=Cc1cnc2ccc(C#N)cn12)C(=O)Nc1ccc(F)cc1 [9-E20, 2-cyano-3-{6-cyanoimidazo[1,2-a]pyridin-3-yl}-N-(4-fluorophenyl)prop-2-enamide]
The viability at 48 h, 25 µM of the first is lower: 7.21% for the first, 99.4% for the second.

Compared with `COCc1nc(C2CCCCCN2C(=O)CCl)no1` (stereo not shown) [5-B07, 2-chloro-1-{2-[5-(methoxymethyl)-1,2,4-oxadiazol-3-yl]azepan-1-yl}ethan-1-one], `C=CC(=O)N1CC(c2ncon2)C1` [2-I03, 1-[3-(1,2,4-oxadiazol-3-yl)azetidin-1-yl]prop-2-en-1-one] is higher in viability at 48 h, 25 µM: 1.24% for the first, 181% for the second.

Going from `Cc1nn(C)c(C)c1C=C(C#N)C(=O)Nc1ccccc1F` [9-I07, 2-cyano-N-(2-fluorophenyl)-3-(1,3,5-trimethyl-1H-pyrazol-4-yl)prop-2-enamide] to `Cc1noc(C)c1C(C)CNC(=O)C(C)Cl` (stereo not shown) [6-P19, 2-chloro-N-[2-(3,5-dimethyl-1,2-oxazol-4-yl)propyl]propanamide], the viability at 48 h, 25 µM falls from 122% to 115%.
